Assay results from patent publication US20240271223A1, “BIOMARKERS FOR A THERAPY COMPRISING AN ANGIOGENESIS INHIBITOR” (Eisai R&D Management Co., Ltd., priority 2021, published 2024).

Experiments:
[1] = tested on: PLC/PRF/5 xenograft HCC model and two HCC patient-derived xenograft models; settings: cited from earlier work
[2] = tested on: 12 mouse syngeneic tumor models; experiment: Changes in MVD gene score of 12 mouse syngeneic tumor models with or without angiogenesis inhibitor treatment (RNA-seq); type: in vivo; settings: tumors collected on day 8, p<0.05, t-test, FIG. 7; for Gene score compared with non-treatment group: lenvatinib 10 mg/kg once daily oral, aflibercept 5 mg/kg twice a week i.p.
Procedure: Twelve mouse cell lines were cultured with appropriate medium (Table 1). Cells were harvested and suspended with Hanks' Balanced Salt Solution (HBSS) and subcutaneously inoculated into right lateral side of 7-week old immune competent mice. Tumor size was measured by an electronic digital caliper (Digimatic Caliper, Mitsutoyo Corporation) and calculated with a formula; (short diameter (mm))^2×(long diameter (mm))/2. Tumors around 100 mm^3 were resected and soaked with RNA later. mRNA extracted from tumor samples were followed by RNA-seq using Illumina NovaSeq™ (GENEWIZ) to quantify expression levels of mRNA. Sequenced reads were subjected to quality assessment by FastQC (version 0.11.5). Illumina adaptor sequences and low quality bases were trimmed by using Trimmomatic (version 0.36). Filtered reads were mapped to the mouse genome (GRCm38/mm10 and Ensembl 88) by using STAR (v2.5.2b). Gene expression levels in transcripts per million (TPM) for all samples were estimated by using RSEM (v1.2.31). Using the same tumor samples, CD31 was stained with anti-CD31 antibody (Clone SZ31, dianova) to detect endothelial cells in IHC analysis. Microvessel density (MVDCD31) score was calculated by dividing the number of CD31 positive blood vessels by tumor area using HALO (Indica Lab).
We developed a gene score by the following steps. First, we extracted 1086 genes that were highly expressed in an endothelial cell population using scRNA-seq data of the Hepa 1-6 mouse HCC model. Next, we extracted genes with TOP20 Pearson's correlation coefficient between its logarithm-transformed expression values (log2 (TPM+1)) and MVD (IHCCD31) using 12 syngeneic tumor models that were measured by RNA-seq and IHC, respectively. Of these 20 genes, we selected seven genes that had known association with vasculature from literature search and added 3 well-known endothelial cell markers to the gene list (Table 2). We further selected genes whose expression were specific to endothelial cell cluster by manually checking t-SNE plots of scRNA-seq data of Hepa 1-6 HCC model. Finally, six genes were chosen as mouse MVD gene set. The gene score of sample i was calculated as follows: […]
The twelve mouse cell lines shown in Table 1 were subcutaneously inoculated into right lateral side of 7-week-old immune competent mice. Mice were randomly grouped into non-treatment and lenvatinib treatment groups when the tumor size reached approximately 100 mm^3 (n=3 for each group). Lenvatinib (10 mg/kg once daily) was orally administered for mice of lenvatinib treatment group and aflibercept (5 mg/kg twice a week) was administered intraperitoneally for mice of aflibercept treatment group for a week. The day on which treatment was started was designated as day 1. […]

[3] = tested on: 12 mouse syngeneic tumor models; experiment: Antitumor activity of lenvatinib on mouse syngeneic tumor models (ΔT/C); type: in vivo; settings: 10 mg/kg once daily oral; ΔT/C on day 15; BNL, Renca and B16-F10 vs other nine models; p<0.05, t-test; FIG. 3c
Procedure: The twelve mouse cell lines shown in Table 1 were subcutaneously inoculated into the right lateral side of 7-week-old immune competent mice. Mice were randomly grouped when the tumor size reached approximately 100 mm^3. Lenvatinib (10 mg/kg once daily) was orally administered for mice of lenvatinib treatment group. The day on which treatment was started was designated as day 1. The values of antitumor activity (ΔT/C) were calculated as ΔT/ΔC×100 where ΔT and ΔC are changes in the mean tumor volumes for drug treated and untreated control groups, respectively. When the tumor volumes decreased from the initial tumor volumes, ΔT/C values were calculated as (Tt−T1)/T1×100, where Tt and T1 are the mean tumor volumes of drug treated group on day t after the start of treatment and day 1, respectively. ΔT/C on day 15 was used for the analysis.

Compound | tumor microvessel density [1] | Gene score compared with non-treatment group [2] | number of tumor models (of 12) in which gene score was decreased vs non-treatment group [2] | antitumor activity (ΔT/C) in lenvatinib sensitive models compared to other nine tumor models [3]
COc1cc2nccc(Oc3ccc(NC(=O)NC4CC4)c(Cl)c3)c2cc1C(N)=O [lenvatinib, 4-(3-chloro-4-(cyclopropylaminocarbonyl)aminophenoxy)-7-methoxy-6-quinolinecarb oxamide] | reduced tumor microvessel density | decreased | 10 tumor models | more antitumor activity
aflibercept: inhibitor of VEGF which binds to circulating VEGF and acts as VEGF-trap, leading to inhibiting tumor angiogenesis |  | significantly decreased | eight | 
